Data as given in patent publication US9839668B2, “Compositions and methods for the treatment of diseases related to the renin-angiotensin-system” (ATTOQUANT DIAGNOSTICS GMBH, priority 2013, dated 2017).

Columns and labels:
Balb/c mice = experiment: Plasma Ang 1-8 and Ang 1-7 levels in Balb/c mice after intra-peritoneal injection, LC-MS/MS; type: in vivo, mouse
Method: Mice were sacrificed 4 h following drug administration and blood was collected in the presence of protease inhibitors suitable for stabilization of angiotensin peptides in the collected sample. Following centrifugation of blood at 2500 g for 5 min at 4° C., Ang 1-8 and Ang 1-7 was quantified in the plasma samples by LC-MS/MS analysis.

APN (EC 3.4.11.2) = APN (EC 3.4.11.2) (Homo sapiens, UniProt P15144); settings: APN vs APA; cited from earlier work
[1] = molecular target: T1, APA (recombinant human ENPEP) (Homo sapiens, UniProt Q07075); experiment: In vitro APA activity assay: conversion of Ang 1-8 to Ang 2-8, LC-MS/MS; type: biochemical; settings: 0.1 μM Amastatin, 1 μg/ml APA
T1 construct: purchased R&D 2499-ZN
Method: (§1) APA activity was determined by measuring Ang 2-8 formation using LC-MS/MS. The Ang 2-8 formation rate is given in pg Ang 2-8/ml per minute. […] Following the incubation period, samples were cooled on ice, stabilized by the addition of protease inhibitors and analyzed for Ang 1-8 levels by LC-MS/MS.

human APA in plasma = experiment: Ex vivo APA activity and Ang 1-8 levels in human heparin plasma plus recombinant human renin; type: biochemical
Method: as §1

SHR rats = experiment: Systolic blood pressure in male SHR rats, tail-cuff method; type: in vivo, rat; settings: day 7, mean +/-SEM
Method: Twenty male 16-week-old SHR rats were used for investigation of short-term effects of the new drug combination on systolic blood pressure. Prior to starting the treatment procedure, rats were conditioned to the experimental procedure by daily blood pressure measurements using the tail-cuff method for 1 week. […] Daily blood pressure measurements were performed 4 h following drug administration and continued throughout the whole treatment period. Blood-pressure data were evaluated by calculating the relative change in systolic blood pressure compared to the vehicle group at day 7 of drug administration. Statistical comparison between the groups was conducted by using Student's T-test.
Mean body weight and baseline systolic blood pressure of SHR rats were determined at the beginning of the treatment period resulting in a mean body weight of 283 g and mean systolic blood pressure of 196 mmHg. Following 7 days of daily oral administration of different compounds and compound combinations, systolic blood pressure was monitored by tail-cuff method and the relative changes compared to vehicle treated control rats (V) mean values are shown with corresponding standard errors of the mean (+/−SEM) (FIG. 1).

[2] = system: Ang 1-8 and Ang 1-7 levels in human whole blood; experiment: Ang 1-8 and Ang 1-7 levels in human heparinized whole blood plus recombinant human renin, ex vivo, LC-MS/MS; type: biochemical; settings: human whole blood + 100 pg/ml renin, 60 min 37° C., ACE inhibitors 10 μM; for Ang 1-7 level: vehicle control 27 pg/ml; for Ang 1-8 level: vehicle control 686 pg/ml
Method: Blood was collected from a human healthy volunteer using a standard heparin blood collection tube. Recombinant human renin was added to whole blood at a concentration of 100 pg/ml in order to simulate RAS hyper-activation. Drugs and combinations were added to different plasma samples at indicated final concentrations and combinations (FIG. 2) using appropriate solvent controls for each compound or combination tested. Following an incubation period of 60 min at 37° C., samples were stabilized by addition of protease inhibitors and Ang 1-8 and Ang 1-7 levels were measured by mass spectrometry.
Ang 1-8 and Ang 1-7 levels were measured following 1 h of incubating the compounds with human heparinized whole blood (plus recombinant human renin) at 37° C.

rats = settings: administered to the periphery by intravenous injection in rats; cited from earlier work
APA over APN = settings: cited from earlier work
SHR rat = settings: one SHR rat, i.v. 50 μmol/kg Lisinopril then 20 μmol/kg Amastatin, blood 10 min after each infusion
Method: A male SHR rat was anesthetized by isoflurane followed by preparation of the jugular vein and insertion of an infusion catheter. At the beginning of the experiment (t=0 min) 200 μl of phosphate buffered saline was infused into the jugular vein within a period of 15 seconds. 10 min following saline infusion, 500 μl heparin blood was collected from the tail vein and placed on ice. Another 10 min later (t=20 min) a dose of 50 μmol/kg Lisinopril was in fused in a volume of 200 μl phosphate buffered saline, followed by another tail vein heparin blood collection of 500 μl heparin blood 10 min after Lisinopril infusion. […] Following centrifugation of blood at 2500 g for 5 min at 4° C., Ang 1-8 and Ang 1-7 was quantified in the plasma samples by LC-MS/MS analysis.

APA in the brain = molecular target: T2, APA in the brain (Rattus norvegicus, UniProt P50123); settings: via inhibition of APA by active metabolite EC-33 in the brain; cited from earlier work
T2 construct: host or cells: brain, in vivo
T2 sequence (P50123 whole entry): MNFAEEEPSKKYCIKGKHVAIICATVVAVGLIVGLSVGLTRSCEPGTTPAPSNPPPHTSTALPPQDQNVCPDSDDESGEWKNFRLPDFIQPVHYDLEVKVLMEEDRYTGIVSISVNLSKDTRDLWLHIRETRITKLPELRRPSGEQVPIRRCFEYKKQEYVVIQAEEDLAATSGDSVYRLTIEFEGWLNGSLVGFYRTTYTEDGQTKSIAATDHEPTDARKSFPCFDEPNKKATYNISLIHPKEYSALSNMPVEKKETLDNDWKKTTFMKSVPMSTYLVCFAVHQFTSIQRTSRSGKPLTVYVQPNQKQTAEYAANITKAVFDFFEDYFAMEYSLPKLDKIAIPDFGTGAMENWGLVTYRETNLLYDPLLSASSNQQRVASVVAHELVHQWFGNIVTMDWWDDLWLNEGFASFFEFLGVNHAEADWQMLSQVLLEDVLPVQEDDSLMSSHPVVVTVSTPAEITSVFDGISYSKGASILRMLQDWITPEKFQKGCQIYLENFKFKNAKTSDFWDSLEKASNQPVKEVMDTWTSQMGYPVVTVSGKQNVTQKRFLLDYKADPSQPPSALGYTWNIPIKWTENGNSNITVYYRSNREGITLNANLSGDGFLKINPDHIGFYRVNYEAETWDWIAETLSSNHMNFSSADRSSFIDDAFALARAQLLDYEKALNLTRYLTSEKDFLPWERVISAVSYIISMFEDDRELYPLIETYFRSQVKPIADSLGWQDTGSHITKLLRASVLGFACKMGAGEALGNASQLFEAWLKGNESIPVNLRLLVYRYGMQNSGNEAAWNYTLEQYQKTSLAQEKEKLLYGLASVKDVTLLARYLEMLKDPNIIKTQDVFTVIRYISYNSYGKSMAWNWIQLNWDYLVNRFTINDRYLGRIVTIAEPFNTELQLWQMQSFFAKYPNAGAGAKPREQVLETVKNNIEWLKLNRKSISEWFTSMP

T1 sequence (Q07075 whole entry): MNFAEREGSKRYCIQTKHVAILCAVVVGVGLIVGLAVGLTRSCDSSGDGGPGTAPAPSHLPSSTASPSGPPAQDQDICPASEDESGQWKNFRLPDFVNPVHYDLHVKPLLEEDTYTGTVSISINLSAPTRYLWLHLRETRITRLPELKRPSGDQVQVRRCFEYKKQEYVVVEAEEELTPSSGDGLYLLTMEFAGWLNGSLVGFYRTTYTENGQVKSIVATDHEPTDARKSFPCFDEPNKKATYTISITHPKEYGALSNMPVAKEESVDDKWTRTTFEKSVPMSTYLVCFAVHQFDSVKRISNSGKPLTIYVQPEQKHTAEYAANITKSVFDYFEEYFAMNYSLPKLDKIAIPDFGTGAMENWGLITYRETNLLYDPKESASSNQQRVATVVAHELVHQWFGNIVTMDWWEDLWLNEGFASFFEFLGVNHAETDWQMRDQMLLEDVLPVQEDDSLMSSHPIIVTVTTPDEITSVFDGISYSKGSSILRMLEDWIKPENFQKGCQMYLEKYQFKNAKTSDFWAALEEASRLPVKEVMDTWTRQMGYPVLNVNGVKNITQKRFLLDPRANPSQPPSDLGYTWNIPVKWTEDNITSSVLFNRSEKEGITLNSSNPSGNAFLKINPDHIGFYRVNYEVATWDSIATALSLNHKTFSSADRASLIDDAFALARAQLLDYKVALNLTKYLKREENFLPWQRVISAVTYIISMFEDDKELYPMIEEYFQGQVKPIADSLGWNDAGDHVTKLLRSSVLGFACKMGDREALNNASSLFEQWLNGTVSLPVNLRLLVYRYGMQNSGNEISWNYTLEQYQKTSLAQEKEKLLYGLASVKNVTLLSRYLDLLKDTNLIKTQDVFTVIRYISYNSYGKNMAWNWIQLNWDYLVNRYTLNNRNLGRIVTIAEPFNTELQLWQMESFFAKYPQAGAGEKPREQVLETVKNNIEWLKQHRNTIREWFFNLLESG
Chain of APN (EC 3.4.11.2) (P15144 whole entry, species assumed): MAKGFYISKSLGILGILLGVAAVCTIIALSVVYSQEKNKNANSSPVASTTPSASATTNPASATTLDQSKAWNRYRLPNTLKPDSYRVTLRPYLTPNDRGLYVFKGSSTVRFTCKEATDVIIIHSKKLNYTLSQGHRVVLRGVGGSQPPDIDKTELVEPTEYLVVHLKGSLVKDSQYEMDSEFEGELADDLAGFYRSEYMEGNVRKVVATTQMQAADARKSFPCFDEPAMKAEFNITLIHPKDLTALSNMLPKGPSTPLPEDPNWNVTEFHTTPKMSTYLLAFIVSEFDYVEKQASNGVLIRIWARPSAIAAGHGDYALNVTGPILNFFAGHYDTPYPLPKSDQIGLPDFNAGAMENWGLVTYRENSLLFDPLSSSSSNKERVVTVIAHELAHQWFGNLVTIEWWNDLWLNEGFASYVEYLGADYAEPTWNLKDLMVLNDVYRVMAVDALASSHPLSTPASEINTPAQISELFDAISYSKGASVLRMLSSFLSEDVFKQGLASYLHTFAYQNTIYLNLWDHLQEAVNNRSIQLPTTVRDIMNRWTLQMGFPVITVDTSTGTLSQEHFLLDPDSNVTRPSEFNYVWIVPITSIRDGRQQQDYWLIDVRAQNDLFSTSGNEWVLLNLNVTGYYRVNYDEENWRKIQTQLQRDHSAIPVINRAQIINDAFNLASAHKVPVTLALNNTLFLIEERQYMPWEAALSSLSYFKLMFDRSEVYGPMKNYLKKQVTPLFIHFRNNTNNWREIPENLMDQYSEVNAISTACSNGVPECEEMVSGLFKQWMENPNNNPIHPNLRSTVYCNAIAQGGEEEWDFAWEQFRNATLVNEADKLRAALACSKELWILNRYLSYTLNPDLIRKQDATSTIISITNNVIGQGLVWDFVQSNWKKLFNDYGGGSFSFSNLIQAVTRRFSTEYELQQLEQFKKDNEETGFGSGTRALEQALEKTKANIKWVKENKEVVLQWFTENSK

Structure (SMILES): CC(C)C[C@@H](N)[C@H](O)C(=O)N[C@H](C(=O)N[C@H](C(=O)N[C@@H](CC(=O)O)C(=O)O)C(C)C)C(C)C [Amastatin]
- change in circulating Ang 1-8 (Balb/c mice; 40 mg/kg i.p., 4 h following drug administration): decrease
- plasma Ang 1-7 level (Balb/c mice; 4 h after i.p. injection, 40 mg/kg each, baseline below LLOQ): < 4 pg/mL
- more potent in inhibiting APN compared to APA (APN (EC 3.4.11.2)): 40 fold
- effect on APA activity in vitro [1]: did not affect APA activity in vitro
- Ang 2-8 formation rate ([1]; 100 ng/ml Ang 1-8, 37° C. 10 min, 971 without Amastatin): 1077 pg Ang 2-8/ml per minute
- effect on the activity of human APA in plasma (human APA in plasma; 0.1 μM Amastatin, 1 μg/ml APA): did not affect the activity of human APA in plasma
- Ang 1-8 level in human heparin plasma (human APA in plasma; 0.1 μM Amastatin, no added APA, 100 pg/ml renin, 60 min 37° C., untreated control 412 pg/ml): 752 pg/mL
- reduction of Ang 1-8 levels by 1 μg/ml APA in the presence of 0.1 μM Amastatin (human APA in plasma; human heparin plasma, 266 pg/ml without Amastatin): 323 pg/mL
- increase in mean systolic blood pressure compared to vehicle treated animals (SHR rats; 40 mg/kg daily for 7 days, not significant (p=0.60)): 5.8+/−7.0 mmHg
- Ang 1-7 level [2]: 15 pg/mL
- Ang 1-8 level [2]: 1016 pg/mL

Structure (SMILES): C[C@H](CS)C(=O)N1CCC[C@H]1C(=O)O [Captopril]
- increase of Ang 1-7 following ACE inhibitor treatment alone (Balb/c mice; 4 h after i.p. injection): not observed
- Ang 1-7 level [2]: 100 pg/mL
- Ang 1-8 level [2]: 29 pg/mL

Structure (SMILES): N[C@H](CS)CCS(=O)(=O)O [EC-33]
- effect on blood pressure (rats): no effect on blood pressure
- selectivity for APA over APN (APA over APN): at least 100 fold

Structure (SMILES): NCCCC[C@H](N[C@@H](CCc1ccccc1)C(=O)O)C(=O)N1CCC[C@H]1C(=O)O [Lisinopril]
- increase of Ang 1-7 following ACE inhibitor treatment alone (Balb/c mice; 4 h after i.p. injection): not observed
- equilibrium Ang 1-8 level (SHR rat; after saline 42.7 pg/ml): 21.5 pg/mL
- equilibrium Ang 1-7 level (SHR rat; after saline below 3.4 pg/ml): 12.1 pg/mL
- decrease in systolic blood pressure compared to vehicle treated animals (SHR rats; 40 mg/kg of each drug daily for 7 days, measured 4 h after dosing, 5 animals per group): 18.6+/−3.9 mmHg
- Ang 1-7 level [2]: 153 pg/mL
- Ang 1-8 level [2]: 33 pg/mL

Structure (SMILES): N[C@@H](CCS(=O)(=O)O)CSSC[C@@H](N)CCS(=O)(=O)O [RB150]
- effect on blood pressure (APA in the brain): effective in lowering blood pressure
